Biological target: human AD brain homogenates (Homo sapiens, UniProt P05067)
Experiment: Tissue homogenate binding assay (competition with [3H]-DMAB)
Conditions: human AD brain (frontal cortex) tissue homogenate; radioligand [3H]-DMAB 1.5 nM; 90 minutes at room temperature
Experimental: Homogenates from AD and non-AD human brain samples were assessed for their immunoreactivity to anti-Aβ antibody 6E10. The highest and lowest levels of 6E10 immunoreactivity were chosen for the AD group and the non-AD control group, respectively. Candidate Aβ compounds were initially selected based on their structural similarity to published amyloid ligands and then for high affinity in competing with [^3H]PIB binding to AD brain homogenates. These compounds were radiolabeled with [^3H] and tested for binding affinity to human AD brain homogenates as well as binding to human non-AD brain homogenates. [^3H]-DMAB (see structure below) was selected based from these candidates based on its binding affinity for human AD brain homogenates, and minimal binding to non-AD control homogenates. A low fraction of non-displaceable binding was also an important criterion.
PET radiotracer candidate compounds were then selected based on their high affinity competition with [^3H]-DMAB in binding to AD brain homogenates. These PET radiotracer candidate compounds were tested to determine if they were effective PgP substrates. Those PET radiotracer candidate compounds with little PgP substrate activity were radiolabeled with [^3H] or [^18F] and tested for binding affinity to human AD brain homogenates as well as binding to human non-AD brain homogenates and in autoradiographic studies using human AD and non-AD brain slices. Candidate radioligands were selected based on their strong binding affinity for human AD brain homogenates, and minimal binding to non-AD control homogenates. A low fraction of non-displaceable binding was also an important criterion. Minimization of white matter binding was an important criterion.
Postmortem frozen human brain samples from donors with clinical diagnosis of Alzheimer's diseases (AD) or normal control subjects (non-AD) were purchased from Analytical Biological Services Inc., at 701-4 Cornell Business Park, Wilmington, Del. […]
[^3H]-DMAB was synthesized at a specific activity of ˜80 Ci/mmol. […] Total binding was defined in the absence of competing compound, and non-displaceable binding was determined in the presence of 1 μM unlabeled self block. […] Incubation was carried out at room temperature (25° C.) for 90 minutes, and then the assay samples were filtered onto GF/C filters using Skatron 12 well harvester, washing on setting 5−5−5 ((˜3×2 ml) ice cold buffer (PBS, pH 7.4). GF/C filter papers for the Skatron harvester were pre-soaked in 0.1% BSA for 1 hour at room temperature before use. Filters were punched into scintillation vials and counted in 2 mL Ultima Gold on Perkin Elmer Tri-Carb 2900TR for 1 minute. The data analysis was done with Prism software. All assays were done in triplicate, and in the laboratory designated for studies using human tissues.

Sequence of human AD brain homogenates (P05067 672-711 limits assumed): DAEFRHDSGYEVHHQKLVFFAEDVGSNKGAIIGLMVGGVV

Row | IC50 [nM] | Structure (SMILES)
1 | 40 | CNc1ccc(-c2cc3ccc(Cl)cc3[nH]2)cn1
2 | 79 | N#Cc1ccc2cc(-c3cnc4[nH]ccc4c3)[nH]c2c1
3 | 245 | Cc1ccc2cc(-c3ccc(-n4ccnc4)nc3)[nH]c2c1
4 | 10 | COc1ccc2[nH]c(-c3ccc(-n4cncn4)nc3)cc2c1

From patent US20110076230A1, “Novel Substituted Indoles” (priority 2008, published 2011)
